Tests used:
[1] = DPPH radical scavenging assay; type: biochemical; conditions: mean ± standard deviation
Experimental: (§1) The antioxidant activity of the Dendropanax morbifera ethanol extract was analyzed using an ABTS (2,2′-azino-bis (3-ethylbenzothiazoline-6-sulfonic acid)) assay and a DPPH (1,1-diphenyl-2-picrylhydrazyl) assay. As the experimental result, the concentration of a sample that appeared when the absorbance decreased by 50% was represented as IC50, and ascorbic acid was used as a standard material.
In the DPPH method, the absorbance was measured by mixing a
DPPH·methanol solution with the sample in a 1:1 ratio. Light was blocked at room temperature and the results were confirmed at 520 nm after 5 minutes of reaction. The DPPH·methanol solution was adjusted so that the blank value was 1.7 to 1.8.

[2] = ABTS radical scavenging assay; type: biochemical; conditions: mean ± standard deviation
Experimental: as §1
Specifically, in the ABTS method, the ABTS solution was mixed with the extract at a ratio of 20:1 and the absorbance was measured. Light was blocked at room temperature and the results were confirmed at 414 nm after 60 minutes of reaction. The ABTS solution was obtained by dissolving 7.4 mM ABTS and 2.6 mM potassium persulfate in distilled water and stored at 4° C. for 1 day, and adjusted so that a blank value was 1.4 to 1.5.

- DPPH IC50 [1]: 25 ± 1 µg/mL
- ABTS IC50 [2]: 71 ± 2 µg/mL
SMILES: O=C1O[C@H]([C@@H](O)CO)C(O)=C1O [Ascorbic acid]
